Test results: US20110039762A1, “TARGETED ANTIMICROBIAL MOIETIES” (C3 JIAN, INC., priority 2009, published 2011)
In brackets after ≈: the same amount, converted by molar mass. Peptide text beside a SMILES is read from it.

What was measured:
S. mutans [1] = type: cell-based, Streptococcus mutans
[2] = tested on: Klebsiella pneumoniae KAY 2026; type: cell-based
Protocol: (§1) Aerobic Gram-negative organisms were grown in Lauri-Bertaini (LB) broth and Gram-positive bacteria in Brain-heart infusion (BHI) broth. Streptococcus mutans JM11 (spectinomycin resistant, UA140 background) was grown in Todd-Hewitt (TH) broth under anaerobic conditions (80% N2, 15% CO2, 5% H2) at 37° C. Merritt et al. (2005) J Microbiol Meth., 61: 161-170. All bacteria were grown overnight to an OD600 of 0.8-1.0 prior to appropriate dilution and antimicrobial testing.
(§2) Briefly, ˜1×10^5 cfu/mL bacteria were diluted in TH (S. mutans), or Mueller-Hinton (MH) broth (all other organisms) and distributed to 96-well plates. Serially-diluted (2-fold) peptides were then added and the plates incubated at 37° C. for 18-24 h. […] All experiments were conducted 10 times.

[3] = tested on: Staphylococcus aureus Newmann; type: cell-based
Protocol: as §1, §2

P. aeruginosa [4] = test: Post-antibiotic effect assay (growth retardation after 10 min exposure); type: cell-based, Pseudomonas aeruginosa; conditions: P. aeruginosa monoculture, peptide 10 min, then fresh medium
Protocol: (§3) The activity and selectivity of MH-STAMPs after a 10 min incubation was determined by growth retardation experiments against targeted and untargeted bacteria in monocultures, as described previously (Id.). Cells from overnight cultures were diluted to ˜5×10^6 cfu/mL in MH (or TH with 1% sucrose for S. mutans), normalized by OD600 0.05-0.1 and seeded to 96-well plates. Cultures were then grown under the appropriate conditions for 2 h (3 h for S. mutans) prior to the addition of peptides for 10 min. Plates were then centrifuged at 3000×g for 5 min, the supernatants discarded, fresh medium returned (MH or TH without sucrose for S. mutans), and incubation resumed. Bacterial growth after treatment was then monitored over time by OD600.

panel of bacteria = test: General antimicrobial activity by MIC against a panel of bacteria; type: cell-based; conditions: panel of bacteria (Table 19)
Protocol: as §2

[5] = tested on: Mixed planktonic populations of P. aeruginosa, E. coli, S. epidermidis, and S. mutans; test: Microbial population shift assay; type: cell-based; conditions: 10 μM peptide, 24 h
Protocol: Peptide (10 μM) or mock-treatment (1× PBS) was then added and samples were incubated at 37° C. for 24 h under anaerobic conditions (80% N2, 15% CO2, 5% H2). […] Plates were then incubated 37° C. under aerobic conditions (TH plates were incubated anaerobically) and colonies counted after 24 h to determine survivors. […] Gram stains and direct microscopic observation (from select isolated colonies) were undertaken to confirm species identity (data not shown). The detection limit of the assay was 200 cfu/mL.

S. epidermidis [6] = test: Post-antibiotic effect assay (growth retardation after 10 min exposure); type: cell-based, Staphylococcus epidermidis; conditions: S. epidermidis monoculture, peptide 10 min, then fresh medium
Protocol: as §3

S. aureus = test: as above; type: cell-based, Staphylococcus aureus; conditions: S. aureus monoculture, peptide 10 min, then fresh medium
Protocol: as §3

S. epidermidis [7] = type: cell-based, Staphylococcus epidermidis
In short: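 Following NCCLS broth microdilution guidance, bacteria at ˜1×10^5 cfu/mL in Mueller-Hinton broth received 2-fold serially diluted peptides and were incubated at 37° C. for 18-24 h. Experiments were run 10 times.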

S. mutans [8] = test: Post-antibiotic effect assay (growth retardation after 10 min exposure); type: cell-based, Streptococcus mutans; conditions: S. mutans monoculture, peptide 10 min, then fresh medium
Protocol: as §3

E. coli [9] = test: as above; type: cell-based, Escherichia coli; conditions: E. coli monoculture, peptide 10 min, then fresh medium
Protocol: as §3

E. coli [10] = type: cell-based, Escherichia coli
Protocol: (§4) Typically, the in vitro antimicrobial activity of antimicrobial agents is tested using standard NCCLS bacterial inhibition assays, or MIC tests (see, National Committee on Clinical Laboratory Standards “Performance Standards for Antimicrobial Susceptibility Testing,” NCCLS Document M100-S5 Vol. 14, No. 16, December 1994; “Methods for dilution antimicrobial susceptibility test for bacteria that grow aerobically-Third Edition,” Approved Standard M7-A3, National Committee for Clinical Standards, Villanova, Pa.).
as §2

P. aeruginosa [11] = type: cell-based, Pseudomonas aeruginosa
Protocol: as §4, §2

S. mutans UA140 biofilms = test: Photodynamic antimicrobial assay against single-species biofilms; type: cell-based, Streptococcus mutans; conditions: 5 μM, dark controls
Protocol: To evaluate C16-RB against monoculture biofilms, S. mutans UA140 was grown overnight in TH prior to inoculation for biofilm formation. For biofilms, 1:5000 dilution of overnight culture was made into TH with 1% sucrose in 2 mL centrifuge tubes (200 μL volume) and grown 24 h under anaerobic conditions. After incubation, biofilms were treated for 5 min with 5 or 25 μM C16-RB or 5 μM RB in 1× PBS, or PBS alone, followed by removal of supernatant and exposure to 5 min blue light (emission 400-550 nm, power 400 mW/cm^2) from an Astralis 7 (Ivoclar Vivodent, Austria) handheld LED commonly used as a dental curing light. The light source was suspended 4 cm from the tube bottom (even with the mouth of the tube). A duplicate set of samples were left covered to serve as dark controls. After treatment, biofilms were mechanically disrupted and plated to determine cfu/mL.

[12] = tested on: mixed biofilms of S. mutans JM11 plus S. oralis, S. gordonii, S. mitis, S. sanguinis, and S. salivarius; test: Photodynamic antimicrobial assay against multispecies biofilms; type: cell-based; conditions: blue light
Protocol: To gauge C16-RB selectivity for S. mutans, similar assays were conducted against multispecies biofilms. Mixed biofilms were seeded by diluting (1:5000) a mixture of equal parts S. oralis, S. gordonii, S. mitis, S. sanguinis, S. salivarius, and S. mutans JM11 (made from overnight cultures) into TH with 1% sucrose, 1% glucose, and 1% mannose. Biofilms were incubated and treated as described above with the addition of vitamin C or potassium gluconate. After the addition of agent and 5 min incubation, biofilms were washed 1× with 1× PBS prior to light exposure. After PDT and biofilm disruption, survivors were plated on TH, and TH supplemented with 800 μg/mL spectinomycin, which allowed for quantitation of surviving total oral streptococci and surviving S. mutans, respectively.

[13] = tested on: BHK-21 (ATCC CRL-10) fibroblasts; test: Cytotoxicity, Promega CellTiterGlo assay; type: cell-based, hamster
Protocol: Streptococcus oralis ATCC 10557, Streptococcus gordonii (Challis), Streptococcus sanguinis (NY101), Streptococcus mitis ATCC 903, Streptococcus salivarius ATCC 13419 and S. mutans wild-type UA140 and JM11 (spectinomycin-resistant) strains were grown in Todd-Hewitt (TH) broth 37° C. in an anaerobic atmosphere of 80% N2, 10% CO2, and 10% H2. BHK-21 (ATCC CRL-10) fibroblasts were propagated in DMEM with 10% FBS, 1 mM sodium pyruvate, 100 units/mL penicillin G, and 100 μg/mL streptomycin at 37° C. with 5% CO2. Cells were detached with 0.25% trypsin and subcultured as recommended by the supplier.
The effect of RB and C16-RB on […] fibroblasts was ascertained by utilizing the Promega CellTiterGlo assay, as described by the manufacturer. Briefly, fibroblasts were grown to confluence, detached, and seeded to ˜5,000 cells per well in a 96-well opaque walled, clear bottom 96-well plate (Nunc International). For long-term dark toxicity, cells were allowed to attach to for 18 h before the culture medium was replaced with medium plus serially-diluted RB or C16-RB (200 μM to 390 nM) or medium alone. After 18-24 h, equal volume Cell Titer Glo reagent was added to each well and mixed. Luciferace activity was then quantified to measure cell viability (Varian Fluorometer in Biolumenescence mode). To measure cytotoxicity after RB or C16-RB light exposure, cells were seeded at ˜10,000 cells per well and allowed to attach for 4 h. Cell growth medium was then replaced with RB or C16-RB containing medium, prior to exposure (a single well at a time) with blue light (400 mW/cm^2) suspended ˜3 cm from the well bottom. After exposure, cultures were disrupted with Cell Titer Glo and luciferase activity quantitated as above.

CC[C@H](C)[C@H](NC(=O)[C@@H](N)Cc1ccccc1)C(=O)N[C@@H](CCCNC(=N)N)C(=O)N[C@@H](CCCCN)C(=O)N[C@@H](Cc1ccccc1)C(=O)N[C@@H](CC(C)C)C(=O)N[C@@H](CCCCN)C(=O)N[C@@H](CCCCN)C(=O)N[C@@H](Cc1c[nH]c2ccccc12)C(=O)N[C@@H](CC(C)C)C(=O)N[C@@H](CC(C)C)C(N)=O [BD2.20] (H-FIRKFLKKWLL-NH2; N-terminus assumed)
MIC (S. mutans [1]): 2.86 ± 0.60 µM (≈ 4.26 µg/mL) | MIC [2]: 2.98 ± 0.47 µM (≈ 4.44 µg/mL) | MIC [3]: 5.625 ± 1.29 µM (≈ 8.39 µg/mL) | bacterial growth (OD600) after treatment (P. aeruginosa [4]): robust antimicrobial activity | general antimicrobial activity by MIC (panel of bacteria): robust MICs | recoverable (surviving) cfu/mL ([5]; E. coli in mixed culture): significant loss of recoverable cfu/mL | recoverable (surviving) cfu/mL ([5]; P. aeruginosa in mixed culture): significant loss of recoverable cfu/mL | recoverable (surviving) cfu/mL ([5]; S. epidermidis in mixed culture): significant loss of recoverable cfu/mL | recoverable (surviving) cfu/mL ([5]; S. mutans in mixed culture): significant loss of recoverable cfu/mL | bacterial growth (OD600) after treatment (S. epidermidis [6]): inhibited | bacterial growth (OD600) after treatment (S. aureus): inhibited | MIC (S. epidermidis [7]): 5.11 ± 1.58 µM (≈ 7.62 µg/mL) | bacterial growth (OD600) after treatment (S. mutans [8]): robust antimicrobial activity | bacterial growth (OD600) after treatment (E. coli [9]): inhibited | MIC (E. coli [10]): 5.47 ± 1.41 µM (≈ 8.16 µg/mL) | MIC (P. aeruginosa [11]): 14.4 ± 4.40 µM (≈ 21.5 µg/mL)

O=C1OC2(c3cc(I)c(O)c(I)c3Oc3c2cc(I)c(O)c3I)c2c(Cl)c(Cl)c(Cl)c(Cl)c21 [RB, rose bengal]
decrease in cfu/mL (S. mutans UA140 biofilms): appreciable decreases in cfu/mL were not observed | photodynamic antimicrobial activity, selectivity ([12]; mixed biofilm): strong indiscriminant photodynamic antimicrobial effects | ratio of surviving S. mutans:non-cariogenic streptococci cfu ([12]; plus potassium gluconate): ~1 | light-dependent (photo-associated) toxicity ([13]; BHK cells, blue light): light-dependent toxicity was observed | IC50 ([13]; BHK, 5 min dark): > 100 µM
